What was measured:
p38α = biological target: T1, p38α (Homo sapiens, UniProt Q16539); assay: Chemical protein stability assay, single-well per test compound format, AlphaLISA, HEK293T cell lysate (Example 9); type: binding; settings: 10 μM compound, 384-well single wells
T1 construct: endogenous in cells; host or cells: HEK293T
Method: For signal detection an antibody detection mix was made up no more than 20 minutes prior to use.

p38α MAPK [1] = biological target: T2, p38α MAPK (Homo sapiens, UniProt Q16539); assay: Protein stability assay, AlphaLISA endpoint, HEK293T cell lysate, AEA titration (Example 1); type: binding; set-up: endogenous in cells; host or cells: HEK293T; settings: compound at 10 or 100 μM, vs DMSO only
Method: Lysate from HEK293T cells grown in continuous culture at 5% CO2/37° C. in full growth media (RPMI (Gibco 11835-063), 10% FCS (Gibco F7524) 1% Glutamax (Gibco 35050-061)) was produced by growing cells in flasks to 85% confluence, removing from the surface using 3 ml Tryple Select (Gibco 12563011), centrifuging (1000 rpm for 4 minutes) to pellet, washing cell pellet two times in DPBS (Gibco 14190-094), resuspending in 1 ml of DPBS (Gibco 14190-094) containing 1× HALT Protease and Phosphatase inhibitor cocktail (Thermo Scientific 78440) per flask and lysing by three cycles of a liquid nitrogen freeze followed by thawing at room temperature. […]
To run the protein stability assay, an aliquot of HEK293T cell lysate at 4 μg/μl was thawed at room temperature and 2 μl added to each well of a 384-well White ProxiPlate (Perkin Elmer 6008280) containing […], 100 μM AMG-548 (Bio-Techne 3920/10) or an equivalent volume of DMSO dosed using the Labcyte ECHO. […] While incubating, fresh 100% AEA (Acetone (11443733), Ethanol (10437341) and Acetic Acid (10365020), all from Fisher Scientific in a ratio of 50:50:0.1) denaturant was made in a glass bottle ready for use. An aliquot of 100% AEA was diluted to 50% in DPBS (Gibco 14190-094) ready to produce titration curves of denaturant. […]
Target sequence in this assay (Q16539 whole entry): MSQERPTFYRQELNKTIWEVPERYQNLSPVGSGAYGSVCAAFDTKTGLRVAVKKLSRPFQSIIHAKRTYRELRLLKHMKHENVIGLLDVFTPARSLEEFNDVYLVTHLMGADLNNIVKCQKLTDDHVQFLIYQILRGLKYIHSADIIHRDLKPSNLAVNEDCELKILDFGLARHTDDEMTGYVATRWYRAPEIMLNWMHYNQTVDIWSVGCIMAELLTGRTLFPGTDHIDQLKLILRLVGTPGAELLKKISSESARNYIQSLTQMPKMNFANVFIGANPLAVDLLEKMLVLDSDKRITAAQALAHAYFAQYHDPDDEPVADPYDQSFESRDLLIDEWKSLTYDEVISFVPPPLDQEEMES

p38α MAPK [2] = biological target: T2, p38α MAPK; assay: Whole cell protein stability assay, AlphaLISA endpoint, intact HEK293T cells, EA titration (Example 4); type: cell-based; set-up: endogenous in cells; host or cells: HEK293T; settings: 10 μM compound as printed, vs DMSO only
Method: HEK293T cells were grown in media (RPMI (Gibco 11835-063), 10% FCS (Gibco F7524) 1% Glutamax (Gibco 35050-061)) to approximately 85% confluence in a flask before harvesting from the surface using 3 ml Tryple Select (Gibco 12563011), washing cell pellet once in DPBS (Gibco 14190-094) and resuspending in media. Cells were counted and diluted in media to a density of 1×10^7 cell/ml.
To run the protein stability assay 5 μl of cells at a density of 1×10^7 cell/ml was added to each well of a 384-well White ProxiPlate ([…]) or an equivalent volume of DMSO dosed using the Labcyte ECHO. The contents of the plate were settled by a short pulse spin, sealed with a TopSeal-A Plus plate seal (Perkin Elmer 6050185) and the compound/lysate mixes incubated at ambient temperature for 30 minutes to 1 hour to allow potential target engagement by compound to occur. While incubating, fresh 100% EA (Ethanol (10437341) and Acetic Acid (10365020), all from Fisher Scientific in a ratio of 100:0.1) denaturant was made in a glass bottle ready for use. 100% EA was used to produce a titration curve of denaturant. […]
The dilution series to be added was made up as a 2× stock so that when 5 μl of denaturant was added to 5 μl lysate the final volume was 10 μl. […] After incubation the plate was read on a fluorescence detecting plate reader (Excitation 680 nm, Emission 615 nm) to determine well signals.
Target sequence in this assay (Q16539 whole entry): as above

p38α MAPK [3] = biological target: T2, p38α MAPK; assay: Protein stability assay, HeLa p38α HiBiT cell lysate, HiBiT endpoint compared with AlphaLISA endpoint (Example 7); type: binding; set-up: lysate of HeLa p38α MAPK-linked HiBiT® endogenously tagged cells; endogenous in cells; host or cells: HeLa p38α HiBiT (genome-edited, endogenously tagged)
Target sequence in this assay (Q16539 2-360): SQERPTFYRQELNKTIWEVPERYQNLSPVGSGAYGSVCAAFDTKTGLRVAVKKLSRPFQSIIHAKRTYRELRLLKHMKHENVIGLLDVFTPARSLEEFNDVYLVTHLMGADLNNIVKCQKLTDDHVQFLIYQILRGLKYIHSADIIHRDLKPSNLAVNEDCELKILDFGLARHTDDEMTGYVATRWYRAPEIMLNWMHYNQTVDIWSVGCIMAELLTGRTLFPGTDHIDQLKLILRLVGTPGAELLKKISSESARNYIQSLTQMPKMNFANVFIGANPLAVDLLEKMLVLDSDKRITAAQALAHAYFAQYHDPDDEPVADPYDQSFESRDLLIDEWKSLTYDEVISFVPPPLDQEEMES
Method: Hela cells expressing the p38α target protein as a C-terminal fusion with a small peptide that includes the Promega HiBit® amino acid sequence were used as the starting material for lysate generation.
A solution containing 1:100 LgBiT® Protein and 1:100 Nano-Glo HiBiT® Lytic Substrate in PBS was created in a suitable volume. […] After incubation the plate was read on a luminescence detecting plate reader (3600 gain, 470-480 emission) to determine well signals.

T1 sequence (Q16539 whole entry): as the sequence (Q16539 whole entry) above

single-well signal vs minimum signal (22% EA, DMSO vehicle) (p38α): higher Maximum effect signal
stabilisation of p38α MAPK target protein (shift of denaturant titration curves) (p38α MAPK [3]; 100 μM compound, AEA and EA titration, HiBiT or AlphaLISA endpoints, vs DMSO only): clear shift between the titration curves
effect of compound on protein unfolding, concentration response curves (p38α MAPK [3]; HiBiT endpoint, fixed dose of denaturant): clear dose dependent effect
SMILES: Cn1c(NC[C@@H](N)Cc2ccccc2)nc(-c2ccncc2)c(-c2ccc3ccccc3c2)c1=O [AMG-548]
stabilisation of p38α MAPK protein (shift in protein denaturation curves) (p38α MAPK [1]): stabilisation of p38α MAPK protein in a dose dependent manner
stabilisation of p38α MAPK protein (shift in protein denaturation curves) (p38α MAPK [2]): stabilisation of p38α MAPK protein compared to DMSO only treatment

— patent US20250044299A1, “PROTEIN STABILITY ASSAY” (Medicines Discovery Catapult Limited, priority 2021, published 2025)
